The source of these data is US20120214802A1, “PYRROLIDINE COMPOUNDS WHICH INHIBIT BETA-SECRETASE ACTIVITY AND METHODS OF USE THEREOF” (priority 2009, published 2012).

The assay deals with memapsin 2 (Homo sapiens, UniProt P56817). As to the kind of experiment: Inhibition of memapsin 2 beta-secretase activity (fluorogenic substrate FS-2). It counts as biochemical. Particulars: pH 4, 37° C., read-out: M2 Ki. How it is done: Potency of compounds were determined by measurement of their inhibition of memapsin 2 activity toward a fluorescent substrate. Kinetic inhibition experiments were performed using the procedure as described in Ermolieff, et al. (Biochemistry 39:12450-12456 (2000), the teachings of which are incorporated hereby in their entirety). Briefly, assays were performed at pH 4, 37° C., by pre-incubation of memapsin 2 enzyme with compound for 20 minutes. Activity measurements were initiated by addition of a fluorogenic substrate FS-2 (Bachem Americas, Torrance, Calif.) MCA-SEVNLDAEFR-DNP (SEQ ID NO.: 2). The substrate was derived from 10 amino acids of the human amyloid precursor protein (APP), with the Swedish variant amino acids at the beta-secretase cleavage site. The terminal amino acid was modified from arginine to lysine to facilitate derivatization with a functional group for detection by autofluorescence. The amino acid sequence of the “core” peptide of the substrate is SEVNLDAEFK (SEQ ID NO.: 3). The amino terminus was derivatized with (7-methoxycoumarin-4-yl)acetyl (MCA), and the epsilon amine of the lysine side chain of the terminal residue (K in sequence SEVNLDAEFK (SEQ ID NO.: 3)) was derivatized with 2,4-dinitorphenyl (DNP).
Chain of memapsin 2 (P56817 46-501): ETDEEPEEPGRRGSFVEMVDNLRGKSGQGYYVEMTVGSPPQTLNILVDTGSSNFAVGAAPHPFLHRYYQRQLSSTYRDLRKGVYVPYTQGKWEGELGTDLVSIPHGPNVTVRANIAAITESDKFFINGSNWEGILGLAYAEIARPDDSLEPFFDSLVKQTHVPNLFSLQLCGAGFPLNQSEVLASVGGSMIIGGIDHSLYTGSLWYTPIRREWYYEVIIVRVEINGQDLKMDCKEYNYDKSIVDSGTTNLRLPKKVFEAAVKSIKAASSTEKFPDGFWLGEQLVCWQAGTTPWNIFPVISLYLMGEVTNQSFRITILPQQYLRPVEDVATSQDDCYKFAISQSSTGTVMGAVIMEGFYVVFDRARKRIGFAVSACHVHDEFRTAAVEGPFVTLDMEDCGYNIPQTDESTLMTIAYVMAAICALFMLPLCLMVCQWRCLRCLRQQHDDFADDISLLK

For `CO[C@H]1CN[C@@H]([C@@H](O)[C@H](Cc2ccccc2)NC(=O)c2cc(C(=O)N3CCC[C@@H]3c3nc(C)cs3)cc(-c3ncco3)c2)C1` [1-81, N-((1R,2S)-1-hydroxy-1-((2R,4R)-4-methoxypyrrolidin-2-yl)-3-phenylpropan-2-yl)-3-((R)-2-(4-methylthiazol-2-yl)pyrrolidine-1-carbonyl)-5-(oxazol-2-yl)benzamide], the inhibition constant Ki (usually the equilibrium dissociation constant of an inhibitor or competing ligand from its target) was < 250 nM.

As for `Cc1csc(CN(C)C(=O)c2cccc(C(=O)N[C@@H](Cc3ccc(F)cc3)[C@H](O)[C@H]3CCCN3)c2)n1` [1-66, N1-((1R,2S)-3-(4-fluorophenyl)-1-hydroxy-1-((R)-pyrrolidin-2-yl)propan-2-yl)-N3-methyl-N3-((4-methylthiazol-2-yl)methyl)isophthalamide], the inhibition constant (Ki) was > 750 nM.

With `Cc1csc([C@H]2CCCN2C(=O)c2cc(C(=O)N[C@@H](Cc3cc(F)cc(F)c3)[C@H](O)[C@H]3CCCN3)ccn2)n1` [1-61, N-((1R,2S)-3-(3,5-difluorophenyl)-1-hydroxy-1-((R)-pyrrolidin-2-yl)propan-2-yl)-2-((R)-2-(4-methylthiazol-2-yl)pyrrolidine-1-carbonyl)isonicotinamide], the Ki was in the range of 250 to 750 nM.

Turning to `CCCN(CCC)C(=O)c1cccc(C(=O)N[C@@H](Cc2ccccc2)[C@H](O)[C@H]2CCCN2)c1` [2-12, N1-((1R,2S)-1-hydroxy-3-phenyl-1-((R)-pyrrolidin-2-yl)propan-2-yl)-N3,N3-dipropylisophthalamide, reference compound], the Ki was > 750 nM.

For the compound `Cc1csc([C@H]2CCCN2C(=O)c2cccc(C(=O)N[C@@H](Cc3ccccc3)[C@@H](O)[C@H]3CCCN3)c2)n1` [1-80, N-((1S,2S)-1-hydroxy-3-phenyl-1-((R)-pyrrolidin-2-yl)propan-2-yl)-3-((R)-2-(4-methylthiazol-2-yl)pyrrolidine-1-carbonyl)benzamide], the Ki was > 750 nM.

Take `Cc1csc([C@H]2CCCN2C(=O)c2cc(C(=O)N[C@@H](Cc3ccccc3)[C@H](O)[C@H]3CCCN3)cc([N+](=O)[O-])c2)n1` [1-55, N-((1R,2S)-1-hydroxy-3-phenyl-1-((R)-pyrrolidin-2-yl)propan-2-yl)-3-((R)-2-(4-methylthiazol-2-yl)pyrrolidine-1-carbonyl)-5-nitrobenzamide]: the Ki was < 250 nM.

In the case of `Cc1csc([C@H]2CCCN2C(=O)c2cccc(C(=O)N[C@@H](Cc3ccccc3)[C@H](O)[C@H]3CC[C@@H](c4ccccc4)N3)c2)n1` [1-29, N-((1R,2S)-1-hydroxy-3-phenyl-1-((2R,5S)-5-phenylpyrrolidin-2-yl)propan-2-yl)-3-((R)-2-(4-methylthiazol-2-yl)pyrrolidine-1-carbonyl)benzamide], the Ki is > 750 nM.

Take `Cc1csc([C@H]2CCCN2C(=O)c2cc(Cl)cc(C(=O)N[C@@H](Cc3ccccc3)[C@H](O)[C@H]3CCCN3)c2)n1` [1-56, 3-chloro-N-((1R,2S)-1-hydroxy-3-phenyl-1-((R)-pyrrolidin-2-yl)propan-2-yl)-5-((R)-2-(4-methylthiazol-2-yl)pyrrolidine-1-carbonyl)benzamide]: the Ki was < 250 nM.

As to `Cc1coc([C@H]2CCCN2C(=O)c2cccc(C(=O)N[C@@H](Cc3ccccc3)[C@H](O)[C@H]3CCCN3C(=O)OC(C)(C)C)c2)n1` [1-3, (R)-tert-butyl 2-((1S,2S)-1-hydroxy-2-(3-((R)-2-(4-methyloxazol-2-yl)pyrrolidine-1-carbonyl)benzamido)-3-phenylpropyl)pyrrolidine-1-carboxylate], the Ki was > 750 nM.

Regarding `Cc1csc([C@H]2CCCN2C(=O)c2cc(C(=O)N[C@@H](Cc3ccccc3)[C@H](O)[C@H]3C[C@H](F)CN3)cc(-c3ncco3)c2)n1` [1-38, N-((1R,2S)-1-((2R,4S)-4-fluoropyrrolidin-2-yl)-1-hydroxy-3-phenylpropan-2-yl)-3-((R)-2-(4-methylthiazol-2-yl)pyrrolidine-1-carbonyl)-5-(oxazol-2-yl)benzamide], the Ki was < 250 nM.

With `Cc1csc([C@H]2CCCN2C(=O)c2cc(C(=O)N[C@@H](Cc3ccccc3)[C@H](O)[C@H]3CCCN3)cc(C(F)(F)F)c2)n1` [1-72, N-((1R,2S)-1-hydroxy-3-phenyl-1-((R)-pyrrolidin-2-yl)propan-2-yl)-3-((R)-2-(4-methylthiazol-2-yl)pyrrolidine-1-carbonyl)-5-(trifluoromethyl)benzamide], the Ki is < 250 nM.

With `Cc1csc(CN(C)C(=O)c2cccc(C(=O)N[C@@H](Cc3ccccc3)[C@H](O)[C@H]3C[C@H](F)CN3)c2)n1` [1-60, N1-((1R,2S)-1-((2R,4S)-4-fluoropyrrolidin-2-yl)-1-hydroxy-3-phenylpropan-2-yl)-N3-methyl-N3-((4-methylthiazol-2-yl)methyl)isophthalamide], the Ki is > 750 nM.

As for `Cc1csc([C@H]2CCCN2C(=O)c2cccc(C(=O)N[C@@H](Cc3ccccc3)[C@H](O)[C@H]3CCC(C)(C)N3)c2)n1` [1-67, N-((1R,2S)-1-((R)-5,5-dimethylpyrrolidin-2-yl)-1-hydroxy-3-phenylpropan-2-yl)-3-((R)-2-(4-methylthiazol-2-yl)pyrrolidine-1-carbonyl)benzamide], the Ki is > 750 nM.

As for `Cc1csc([C@H]2CCCN2C(=O)c2cc(C(=O)N[C@@H](Cc3ccccc3)[C@H](O)[C@H]3C[C@H](F)CN3)cc(-n3cccc3)c2)n1` [1-59, N-((1R,2S)-1-((2R,4S)-4-fluoropyrrolidin-2-yl)-1-hydroxy-3-phenylpropan-2-yl)-3-((R)-2-(4-methylthiazol-2-yl)pyrrolidine-1-carbonyl)-5-(1H-pyrrol-1-yl)benzamide], the Ki was < 250 nM.

`Cc1csc([C@H]2CCCN2C(=O)c2cc(C(=O)N[C@@H](Cc3cc(F)cc(F)c3)[C@H](O)[C@H]3CCCN3)cc(-c3cnccn3)c2)n1` [1-63, N-((1R,2S)-3-(3,5-difluorophenyl)-1-hydroxy-1-((R)-pyrrolidin-2-yl)propan-2-yl)-3-((R)-2-(4-methylthiazol-2-yl)pyrrolidine-1-carbonyl)-5-(pyrazin-2-yl)benzamide]: the Ki is < 250 nM.

Regarding `Cc1csc([C@H]2CCCN2C(=O)c2cc(C(=O)N[C@@H](Cc3ccccc3)[C@H](O)[C@H]3CCCN3)cc(S(C)(=O)=O)c2)n1` [1-68, N-((1R,2S)-1-hydroxy-3-phenyl-1-((R)-pyrrolidin-2-yl)propan-2-yl)-3-(methylsulfonyl)-5-((R)-2-(4-methylthiazol-2-yl)pyrrolidine-1-carbonyl)benzamide], the Ki was < 250 nM.

With `Cc1csc([C@H]2CCCN2C(=O)c2cc(C(=O)N[C@@H](Cc3ccccc3)[C@H](O)[C@H]3CCCN3)cc(-n3ccnc3)c2)n1` [1-77, N-((1R,2S)-1-hydroxy-3-phenyl-1-((R)-pyrrolidin-2-yl)propan-2-yl)-3-(1H-imidazol-1-yl)-5-((R)-2-(4-methylthiazol-2-yl)pyrrolidine-1-carbonyl)benzamide], the Ki was 250 to 750 nM.

As for `Cc1csc(CN(C)C(=O)c2cccc(C(=O)N[C@@H](Cc3cccc(F)c3)[C@H](O)[C@H]3CCCN3)c2)n1` [1-54, N1-((1R,2S)-3-(3-fluorophenyl)-1-hydroxy-1-((R)-pyrrolidin-2-yl)propan-2-yl)-N3-methyl-N3-((4-methylthiazol-2-yl)methyl)isophthalamide], the Ki is 250 to 750 nM.

As to `Cc1csc([C@H]2CCCN2C(=O)c2cc(C(=O)N[C@@H](Cc3cc(F)cc(F)c3)[C@H](O)[C@H]3CCCN3)cc(C3CC3)c2)n1` [1-62, 3-cyclopropyl-N-((1R,2S)-3-(3,5-difluorophenyl)-1-hydroxy-1-((R)-pyrrolidin-2-yl)propan-2-yl)-5-((R)-2-(4-methylthiazol-2-yl)pyrrolidine-1-carbonyl)benzamide], the Ki is < 250 nM.

For `Cc1csc([C@H]2CCCN2C(=O)c2cccc(C(=O)N[C@@H](Cc3ccccc3)[C@H](O)[C@@H]3NCCC3(F)F)c2)n1` [1-57, N-((1S,2S)-1-((S)-3,3-difluoropyrrolidin-2-yl)-1-hydroxy-3-phenylpropan-2-yl)-3-((R)-2-(4-methylthiazol-2-yl)pyrrolidine-1-carbonyl)benzamide], the Ki was < 250 nM.

Take `Cc1csc([C@H]2CCCN2C(=O)c2cc(C(=O)N[C@@H](Cc3ccccc3)[C@H](O)[C@H]3CC[C@@H](C)N3)cc(-n3cccc3)c2)n1` [1-58, N-((1R,2S)-1-hydroxy-1-((2R,5R)-5-methylpyrrolidin-2-yl)-3-phenylpropan-2-yl)-3-((R)-2-(4-methylthiazol-2-yl)pyrrolidine-1-carbonyl)-5-(1H-pyrrol-1-yl)benzamide]: the Ki was in the range of 250 to 750 nM.

As for `Cc1csc([C@H]2CCCN2C(=O)c2cccc(C(=O)N[C@@H](Cc3ccccc3)[C@H](O)[C@@H]3CC[C@H](c4ccccc4)N3)c2)n1` [1-31, N-((1R,2S)-1-hydroxy-3-phenyl-1-((2S,5R)-5-phenylpyrrolidin-2-yl)propan-2-yl)-3-((R)-2-(4-methylthiazol-2-yl)pyrrolidine-1-carbonyl)benzamide], the Ki was > 750 nM.

As to `O=C(N[C@@H](Cc1ccccc1)[C@H](O)[C@H]1CCCN1)c1cccc(CN2CCCC2=O)c1` [2-13, N-((1R,2S)-1-hydroxy-3-phenyl-1-((R)-pyrrolidin-2-yl)propan-2-yl)-3-((2-oxopyrrolidin-1-yl)methyl)benzamide, reference compound], the Ki is > 750 nM.
